Results from patent publication US20160326558A1, “Process for Stimulating Hyaluronic Acid Production with Ascorbic Acid Derivatives and the Composition Thereof” (CORUM INC., priority 2012, published 2016).
Values joined by “and” are separate entries in the source; they are usually repeats but may differ in a detail not shown here. Equal values may be shown once.

How the values were obtained:
Format in all cases: cell-based
[1] = tested on: human fibroblast (Hs68); assay: Stimulating hyaluronic acid production in human fibroblast, Echelon HA-ELISA (Example 2); conditions: for Hyaluronic Acid Content Stimulated, Average / Hyaluronic Acid Content Stimulated, single entries: 72 h, vs negative control = 100%
Excerpt: Cell Line: Hs68 (BCRC 60038, purchased from Bioresource Collection and Research Center) Complete Medium (as positive control): DMEM medium with 10% Fetal Bovine Serum (DMEM purchased from Corning Incorporated and Caisson Labs; FBS purchased from Caisson Labs) Starvation Medium (as negative control): DMEM medium with 0.1% Fetal Bovine Serum (DMEM purchased from Corning Incorporated and Caisson Labs; FBS purchased from Caisson Labs) Hyaluronan Enzyme-Linked Immunosorbent Assay Kit (HA-ELISA) (Brand: Echelon/Cat No K-1200) Complete medium is used in cell seeding stage. The confluent Hs68 cells are rinsed with sterile D-PBS, and trypsinize all cells and perform cell counting. Then, dilute the cell density to 4E+04/mL and seed 0.5 mL cell liquid (equals to 2E+04 cells) each well in 24 well plates. Incubate Hs68 cells at 37° C., 5% CO2 for about 24 hours. Starvation medium is used in this stage. The 24-hour-cultured Hs68 cells are rinsed with sterile D-PBS and discarded rinse buffer. Controls and testing materials in different concentrations are respectively added into the Hs68 cells in 24 well plates. Then, the Hs68 cells are incubated at 37° C., with 5% CO2 for about 72 hours. After incubating for about 72 hours, transfer some supernatant of cells treating with controls and testing materials into new containers. Centrifuge the supernatants at 2000 rpm for 5˜10 minutes. The hyaluronic acid content of the centrifuged supernatants are respectively determined by Hyaluronan Enzyme-Linked Immunosorbent Assay Kit, and calculated with the following Formula 2. [formula]

[2] = tested on: mouse fibroblast (3T3); assay: Stimulating hyaluronic acid production in mouse fibroblast, R&D HA-ELISA (Examples 3 and 5); conditions: for Hyaluronic Acid Content Stimulated, Average / Hyaluronic Acid Content Stimulated, single entries: 72 h, vs negative control = 100%
Description: (§1) Complete medium is used in cell seeding stage. The confluent 3T3 cells are rinsed with sterile D-PBS, and trypsinize all cells and perform cell counting. Then, dilute the cell density to 4E+04/mL and seed 0.5 mL cell liquid (equals to 2E+04 cells) each well in 24 well plates. Incubate 3T3 cells at 37° C., 5% CO2 for about 24 hours. Starvation medium is used in this stage. The 24-hour-cultured 3T3 cells are rinsed with sterile D-PBS and discarded rinse buffer. Controls and testing materials in different concentrations are respectively added into the 3T3 cells in 24 well plates. Then, the 3T3 cells are incubated at 37° C., with 5% CO2 for about 72 hours. After incubating for about 72 hours, transfer some supernatant of cells treated with controls and testing materials into new containers. Centrifuge the supernatants at 2000 rpm for 5˜10 minutes. The hyaluronic acid content of the centrifuged supernatants are respectively determined by Hyaluronan Enzyme-Linked Immunosorbent Assay Kit, and calculated with the following Formula 1. [formula] In this example, we try another brand HA-ELISA kit (R&D; Cat No. DHYAL0) to figure out the reproducibility of the stimulatory effect. Excluding replacing the HA-ELISA kit, the materials and the procedures can be referred to the above Example 1. In this example, we try to figure out whether the stimulatory effect also can be found on ascorbic acid. Excluding replacing the HA-ELISA kit to another brand HA-ELISA kit (R&D; Cat No. DHYAL0) and replacing the testing material to ascorbic acid, the other materials and the procedures can be referred to the above Example 1.

[3] = tested on: human fibroblast (Hs68); assay: Stimulating hyaluronic acid production in human fibroblast, R&D HA-ELISA (Example 4); conditions: for Hyaluronic Acid Content Stimulated, Average / Hyaluronic Acid Content Stimulated, single entries: 72 h, vs negative control = 100%
Description: as §1, with “Hs68” for “3T3”, “treating” for “treated”, “2.” for “1.”, “study” for “figure out”, “2.” for “1. In this example, we try to figure out whether the stimulatory effect also can be found on ascorbic acid. Excluding replacing the HA-ELISA kit to another brand HA-ELISA kit (R&D; Cat No. DHYAL0) and replacing the testing material to ascorbic acid, the other materials and the procedures can be referred to the above Example 1.”

[4] = tested on: mouse fibroblast (3T3); assay: Hyaluronic acid content stimulated by 3-O-ethyl ascorbic acid and AA2G in mouse fibroblast (Table 6); conditions: for Hyaluronic Acid Content Stimulated, Average / Hyaluronic Acid Content Stimulated, single entries: vs negative control = 100%
[5] = tested on: mouse fibroblast (3T3); assay: Cell viability of mouse fibroblast (Example 1); conditions: concentration larger than 7500 ppm
[6] = tested on: human fibroblast (Hs68); assay: Cell viability of human fibroblast (Example 2); conditions: 10000 ppm

CCOC1=C(O)C(=O)O[C@@H]1[C@@H](O)CO [3-O-ethyl-ascorbic acid]
Hyaluronic Acid Content Stimulated, Average ([1]; 10 ppm): 107.2%
Hyaluronic Acid Content Stimulated, single entries ([1]; 10 ppm): 92.7% and 123.3% and 105.7%
Hyaluronic Acid Content Stimulated, Average ([1]; 100 ppm): 148.8%
Hyaluronic Acid Content Stimulated, single entries ([1]; 100 ppm): 200.9% and 130.3% and 115.1%
stimulated hyaluronic acid production, dose dependence (in words) ([1]; 1000-10 ppm): dose-dependently
Hyaluronic Acid Content Stimulated, Average ([1]; 1000 ppm): 182.7%
Hyaluronic Acid Content Stimulated, single entries ([1]; 1000 ppm): 170.1% and 172.6%
Hyaluronic Acid Content Stimulated, Average ([1]; 10000 ppm): 32.5%
Hyaluronic Acid Content Stimulated, Average ([2]; 1.25 ppm): 143.0%
Hyaluronic Acid Content Stimulated, single entries ([2]; 1.25 ppm): 100.0% and 156.8% and 172.0%
Hyaluronic Acid Content Stimulated, Average ([2]; 2.5 ppm): 145.9%
Hyaluronic Acid Content Stimulated, single entries ([2]; 2.5 ppm): 119.7% and 135.2% and 182.8%
Hyaluronic Acid Content Stimulated, Average ([2]; 5 ppm): 137.1%
Hyaluronic Acid Content Stimulated, Average ([2]; 7.5 ppm): 135.9%
Hyaluronic Acid Content Stimulated, single entries ([2]; 7.5 ppm): 115.9% and 143.8% and 148.1%
Hyaluronic Acid Content Stimulated, Average ([2]; 10 ppm, Table 3): 147.1%
Hyaluronic Acid Content Stimulated, single entries ([2]; 10 ppm, Table 3): 101.0% and 158.1% and 182.2%
Hyaluronic Acid Content Stimulated, Average ([2]; 100 ppm, Table 3): 171.2%
Hyaluronic Acid Content Stimulated, single entries ([2]; 100 ppm, Table 3): 166.8% and 155.7% and 191.2%
Hyaluronic Acid Content Stimulated, Average ([2]; 1000 ppm): 177.8%
Hyaluronic Acid Content Stimulated, Average ([2]; 2500 ppm): 159.3%
Hyaluronic Acid Content Stimulated, single entries ([2]; 2500 ppm): 148.7% and 176.3% and 152.8%
stimulated hyaluronic acid production, dose dependence (in words) ([2]; 5000-5 ppm): dose-dependently
Hyaluronic Acid Content Stimulated, Average ([2]; 5000 ppm): 184.2%
Hyaluronic Acid Content Stimulated, single entries ([2]; 5000 ppm): 131.8% and 180.4%
Hyaluronic Acid Content Stimulated, Average ([2]; 7500 ppm): 143.8%
Hyaluronic Acid Content Stimulated, single entries ([2]; 7500 ppm): 119.9% and 130.8% and 180.7%
Hyaluronic Acid Content Stimulated, Average ([2]; 10000 ppm): 109.0%
Hyaluronic Acid Content Stimulated, Average ([3]; 1.25 ppm): 112.6%
Hyaluronic Acid Content Stimulated, single entries ([3]; 1.25 ppm): 102.1% and 126.8% and 102.4% and 119.0%
Hyaluronic Acid Content Stimulated, Average ([3]; 2.5 ppm): 136.7%
Hyaluronic Acid Content Stimulated, single entries ([3]; 2.5 ppm): 149.7% and 125.3% and 111.4% and 160.5%
Hyaluronic Acid Content Stimulated, Average ([3]; 5 ppm): 123.1%
Hyaluronic Acid Content Stimulated, single entries ([3]; 5 ppm): 110.6% and 110.9% and 103.8% and 167.0%
Hyaluronic Acid Content Stimulated, Average ([3]; 7.5 ppm): 134.0%
Hyaluronic Acid Content Stimulated, Average ([3]; 10 ppm): 97.7%
Hyaluronic Acid Content Stimulated, single entries ([3]; 10 ppm): 89.1% and 101.2% and 91.2% and 109.5%
Hyaluronic Acid Content Stimulated, Average ([3]; 100 ppm): 121.9%
Hyaluronic Acid Content Stimulated, Average ([3]; 1000 ppm): 133.9%
Hyaluronic Acid Content Stimulated, single entries ([3]; 1000 ppm): 125.4% and 134.8% and 122.6% and 152.7%
Hyaluronic Acid Content Stimulated, Average ([3]; 2500 ppm): 103.6%
Hyaluronic Acid Content Stimulated, single entries ([3]; 2500 ppm): 99.2% and 96.7% and 78.7% and 140.0%
Hyaluronic Acid Content Stimulated, Average ([3]; 5000 ppm): 91.0%
Hyaluronic Acid Content Stimulated, single entries ([3]; 5000 ppm): 110.0% and 70.6% and 103.2% and 80.3%
Hyaluronic Acid Content Stimulated, Average ([3]; 7500 ppm): 73.1%
Hyaluronic Acid Content Stimulated, Average ([3]; 10000 ppm): 40.7%
Hyaluronic Acid Content Stimulated, single entries ([3]; 10000 ppm): 50.9% and 32.1% and 37.2% and 42.4%
stimulated hyaluronic acid production, dose dependence (in words) ([3]; about 1000-10 ppm): dose-dependently
Hyaluronic Acid Content Stimulated, Average ([4]; 10 ppm): 122%
Hyaluronic Acid Content Stimulated, single entries ([4]; 10 ppm): 125% and 122% and 118%
Hyaluronic Acid Content Stimulated, Average ([4]; 100 ppm): 138%
Hyaluronic Acid Content Stimulated, single entries ([4]; 100 ppm): 115% and 161% and 138%
Hyaluronic Acid Content Stimulated, Average ([4]; 1000 ppm): 171%
Hyaluronic Acid Content Stimulated, single entries ([4]; 1000 ppm): 180% and 165% and 168%
stimulatory of producing hyaluronic acid (in words) ([4]; Table 6, 10-1000 ppm): helpful to the stimulatory of producing hyaluronic acid
cell viability [5]: inhibited
cell viability [6]: inhibited
